Laboratory results as given in US7553618B2, “Method for determining human immunodeficiciency virus type 1 (HIV-1) hypersusceptibility to the protease inhibitor amprenavir” (Monogram Biosciences, Inc., priority 2002, dated 2009).

Test system: HIV-1 from patient plasma samples
Test: PHENOSENSE HIV phenotypic susceptibility assay, fold change in IC50 of patient virus versus NL4-3 reference virus
Assay type: cell-based
Details: Patient IC50/reference (NL4-3) IC50; for Fold change (FC) in IC50, 10th percentile: 10th percentile of distribution over 1515 patient samples, hypersusceptibility cut-off; for Fold change (FC) in IC50, 90th percentile: 90th percentile of distribution over 1515 patient samples; for Fold change (FC) in IC50, mean: mean over 1515 patient samples without resistance-selected mutations; for Fold change (FC) in IC50, median: median over 1515 patient samples without resistance-selected mutations
Method: In a preferred embodiment, the phenotypic analysis is performed using PHENOSENSE™ (ViroLogic Inc., South San Francisco, Calif.). See Petropoulos et al., 2000, Antimicrob. Agents Chemother. 44:920-928; U.S. Pat. Nos. 5,837,464 and 6,242,187. PHENOSENSE™ is a phenotypic assay that achieves the benefits of phenotypic testing and overcomes the drawbacks of previous assays. Because the assay has been automated, PHENOSENSE™ offers higher throughput under controlled conditions. The result is an assay that accurately defines the susceptibility profile of a patient's HIV isolates to all currently available antiretroviral drugs, and delivers results directly to the physician within about 10 to about 15 days of sample receipt. PHENOSENSE™ is accurate and can obtain results with only one round of viral replication, thereby avoiding selection of subpopulations of virus. The results are quantitative, measuring varying degrees of drug susceptibility, and sensitive—the test can be performed on blood specimens with a viral load of about 500 copies/mL and can detect minority populations of some drug-resistant virus at concentrations of 10% or less of total viral population. Furthermore, the results are reproducible and can vary by less than about 1.4-2.5 fold, depending on the drug, in about 95% of the assays performed.
A resistance test vector (“RTV”) can then be constructed by incorporating the amplified viral gene sequences into a replication defective viral vector by using any method known in the art of incorporating gene sequences into a vector. In one embodiment, restrictions enzymes and conventional cloning methods are used. See Sambrook et al., 2001, Molecular Cloning: A Laboratory Manual, Cold Spring Harbor Laboratory, 3rd ed., NY; and Ausubel et al., 1989, Current Protocols in Molecular Biology, Greene Publishing Associates and Wiley Interscience, NY. In a preferred embodiment, ApaI and PinAI restriction enzymes are used. Preferably, the replication defective viral vector is the indicator gene viral vector (“IGVV”). In a preferred embodiment, the viral vector contains a means for detecting replication of the RTV. Preferably, the viral vector contains a luciferase expression cassette.
The assay can be performed by first co-transfecting host cells with RTV DNA and a plasmid that expresses the envelope proteins of another retrovirus, for example, amphotropic murine leukemia virus (MLV). Following transfection, virus particles can be harvested and used to infect fresh target cells. The completion of a single round of viral replication can be detected by the means for detecting replication contained in the vector. In a preferred embodiment, the completion of a single round of viral replication results in the production of luciferase. Serial concentrations of anti-viral agents can be added at either the transfection step or the infection step.
Susceptibility to the anti-viral agent can be measured by comparing the replication of the vector in the presence and absence of the anti-viral agent. For example, susceptibility to the anti-viral agent can be measured by comparing the luciferase activity in the presence and absence of the anti-viral agent. Susceptible viruses would produce low levels of luciferase activity in the presence of anti-viral agents, whereas viruses with reduced susceptibility would produce higher levels of luciferase activity.
In order to determine the relationship between an HIV-1 strain's protease sequence and its susceptibility to treatment with a protease inhibitor, a data set of patient plasma samples was analyzed genotypically as well as phenotypically. The phenotypic assay was conducted using the PHENOSENSE™ (Virologic, South San Francisco, Calif.) HIV assay (Petropoulos et al., 2000, Antimicrob. Agents Chemother. 44:920-928; U.S. Pat. Nos. 5,837,464 and 6,242,187). Plasma samples were collected from HIV-1-infected patients. […]

## CC(C)CN(C[C@@H](O)[C@H](Cc1ccccc1)NC(=O)O[C@H]1CCOC1)S(=O)(=O)c1ccc(N)cc1 [APV, amprenavir]
  Fold change (FC) in IC50, 10th percentile: 0.35
  Fold change (FC) in IC50, 90th percentile: 1.32
  Fold change (FC) in IC50, mean: 0.69
  Fold change (FC) in IC50, median: 0.71

## CC(C)(C)NC(=O)[C@@H]1CN(Cc2cccnc2)CCN1C[C@@H](O)C[C@@H](Cc1ccccc1)C(=O)N[C@H]1c2ccccc2C[C@H]1O [IDV, indinavir]
  Fold change (FC) in IC50, 10th percentile: 0.44
  Fold change (FC) in IC50, 90th percentile: 1.35
  Fold change (FC) in IC50, mean: 0.78
  Fold change (FC) in IC50, median: 0.78

## Cc1cccc(C)c1OCC(=O)N[C@@H](Cc1ccccc1)[C@@H](O)C[C@H](Cc1ccccc1)NC(=O)[C@H](C(C)C)N1CCCNC1=O [LPV, lopinavir]
  Fold change (FC) in IC50, 10th percentile: 0.40
  Fold change (FC) in IC50, 90th percentile: 1.15
  Fold change (FC) in IC50, mean: 0.68
  Fold change (FC) in IC50, median: 0.69

## Cc1c(O)cccc1C(=O)N[C@@H](CSc1ccccc1)[C@H](O)CN1C[C@H]2CCCC[C@H]2C[C@H]1C(=O)NC(C)(C)C [NFV, nelfinavir]
  Fold change (FC) in IC50, 10th percentile: 0.54
  Fold change (FC) in IC50, 90th percentile: 2.09
  Fold change (FC) in IC50, mean: 1.05
  Fold change (FC) in IC50, median: 1.05

## CC(C)c1nc(CN(C)C(=O)N[C@H](C(=O)N[C@@H](Cc2ccccc2)C[C@H](O)[C@H](Cc2ccccc2)NC(=O)OCc2cncs2)C(C)C)cs1 [RTV, ritonavir]
  Fold change (FC) in IC50, 10th percentile: 0.45
  Fold change (FC) in IC50, 90th percentile: 1.55
  Fold change (FC) in IC50, mean: 0.82
  Fold change (FC) in IC50, median: 0.81

## CC(C)(C)NC(=O)[C@@H]1C[C@@H]2CCCC[C@@H]2CN1C[C@@H](O)[C@H](Cc1ccccc1)NC(=O)[C@H](CC(N)=O)NC(=O)c1ccc2ccccc2n1 [SQV, saquinavir]
  Fold change (FC) in IC50, 10th percentile: 0.44
  Fold change (FC) in IC50, 90th percentile: 1.12
  Fold change (FC) in IC50, mean: 0.70
  Fold change (FC) in IC50, median: 0.71
